From patent US9040524B2, “Antifungal 5,6-dihydro-4H-pyrrolo[1,2-a][1,4]-benzodiazepines and 6H-pyrrolo[1,2-a][1,4]benzodiazepines substituted with bicycle benzene derivatives” (JANSSEN PHARMACEUTICA NV, priority 2010, dated 2015)

Columns and labels:
Assay type in all cases: cell-based
Sporothrix schenkii = experiment: Antifungal activity in vitro, resazurin growth inhibition screen: Sporothrix schenkii; details: Sporothrix schenkii B62482; for IC50: read-out: Inf. A pIC50 (converted)
Method: (§1) The standard susceptibility screen was performed in 96-well plates (U-bottom, Greiner Bio-One). Serial dilutions (2-fold or 4-fold) of 20 mM compound stock solutions were made in 100% DMSO, followed by an intermediate dilution step in water. These serial dilutions (10 μl) were then spotted onto test-plates that could be stored in the dark at 4° C. for a maximum period of 2 weeks. An adequate broad dose-range was included with 64 μM as the highest in-test concentration. […] The different fungal species/isolates (Table 3a) were cryopreserved and 1/1000 diluted in medium just prior to use. A standard inoculum of 200 μl containing 10^3 colony-forming unit (cfu) was then added to each well. A positive control (100% growth=fungal culture without antifungal) and a negative control (0% growth=RPMI-MOPS medium) were included on each plate.

Candida parapsilosis = experiment: Antifungal activity in vitro, resazurin growth inhibition screen: Candida parapsilosis; details: Candida parapsilosis B66126; for IC50: Lodderomyces parapsilosis, read-out: Inf. D pIC50 (converted)
Method: as §1

[1] = tested on: Trichophyton mentagrophytes; experiment: Antifungal activity in vitro, resazurin growth inhibition screen: Trichophyton mentagrophytes; details: Trichophyton mentagrophytes B70554; for IC50: read-out: Inf. G pIC50 (converted)
Method: as §1

Trichophyton rubrum = experiment: Antifungal activity in vitro, resazurin growth inhibition screen: Trichophyton rubrum; details: Trichophyton rubrum B68183; for IC50: read-out: Inf. C pIC50 (converted)
Method: as §1

Aspergillus fumigatus = experiment: Antifungal activity in vitro, resazurin growth inhibition screen: Aspergillus fumigatus; details: Aspergillus fumigatus B42928; for IC50: read-out: Inf. E pIC50 (converted)
Method: as §1

Microsporum canis = experiment: Antifungal activity in vitro, resazurin growth inhibition screen: Microsporum canis; details: Microsporum canis B68128; for IC50: read-out: Inf. B pIC50 (converted)
Method: as §1

Cryptococcus neoformans = experiment: Antifungal activity in vitro, resazurin growth inhibition screen: Cryptococcus neoformans; details: Cryptococcus neoformans B66663; for IC50: read-out: Inf. F pIC50 (converted)
Method: as §1

Row | Compound | Inf. A pIC50 (Sporothrix schenkii) | Inf. D pIC50 (Candida parapsilosis) | Inf. G pIC50 [1] | Inf. C pIC50 (Trichophyton rubrum) | Inf. E pIC50 (Aspergillus fumigatus) | Inf. B pIC50 (Microsporum canis) | Inf. F pIC50 (Cryptococcus neoformans) | IC50 (Sporothrix schenkii) [µM] | IC50 (Candida parapsilosis) [µM] | IC50 [1] [µM] | IC50 (Trichophyton rubrum) [µM] | IC50 (Aspergillus fumigatus) [µM] | IC50 (Microsporum canis) [nM] | IC50 (Cryptococcus neoformans) [µM]
1 | Br.CCOc1cc2c(cc1C1NCc3c(Cl)cccc3-n3cccc31)OC(C)C2 (stereo not drawn) [Compound 50, 7-chloro-4-(5-ethoxy-2,3-dihydro-2-methyl-6-benzofuranyl)-5,6-dihydro-4H-pyrrolo[1,2-a][1,4]benzodiazepine .HBr] | <4.19 | <4.19 | <4.19 | 5.52 | <4.19 | 4.92 | 4.74 | – | – | – | – | – | – | –
2 | Cl.O=C1CCc2ccc(C3NCc4c(Cl)cccc4-n4cccc43)cc21 (stereo not drawn) [Compound 52, 6-(7-chloro-5,6-dihydro-4H-pyrrolo[1,2-a][1,4]benzodiazepin-4-yl)-2,3-dihydro-1H-inden-1-one .HCl] | <4.19 | <4.19 | 4.31 | 4.55 | <4.19 | <4.80 | <4.19 | – | – | – | – | – | – | –
3 | Cl.Fc1cccc2c1CNC(c1ccc3c(c1)CCC(F)(F)O3)c1cccn1-2 (stereo not drawn) [Compound 53, 4-(2,2-difluoro-3,4-dihydro-2H-1-benzopyran-6-yl)-7-fluoro-5,6-dihydro-4H-pyrrolo[1,2-a][1,4]benzodiazepine .HCl] | <4.19 | <4.19 | 4.49 | 4.50 | 4.97 | 4.49 | 4.87 | – | – | – | – | – | – | –
4 | Cl.Fc1cc(F)c2c(c1)-n1cccc1C(c1ccc3c(c1)CCC(F)(F)O3)NC2 (stereo not drawn) [Compound 54, 4-(2,2-difluoro-3,4-dihydro-2H-1-benzopyran-6-yl)-7,9-difluoro-5,6-dihydro-4H-pyrrolo[1,2-a][1,4]benzodiazepine .HCl] | <4.19 | <4.19 | 4.49 | 5.10 | <4.19 | 5.09 | 5.11 | – | – | – | – | – | – | –
5 | O=C1CCc2cc(C3=NCc4cccc(Cl)c4-n4cccc43)ccc21 [Compound 57, 5-(10-chloro-6H-pyrrolo[1,2-a][1,4]benzodiazepin-4-yl)-2,3-dihydro-1H-inden-1-one] | – | – | – | – | – | – | – | 2.24 | > 64.6 | 3.98 | 1.58 | 2.4 | 2000 | 5.89
6 | O=C1CCCc2cc(C3=NCc4cccc(Cl)c4-n4cccc43)ccc21 [Compound 61, 6-(10-chloro-6H-pyrrolo[1,2-a][1,4]benzodiazepin-4-yl)-3,4-dihydro-1 (2H)-naphthalenone] | – | – | – | – | – | – | – | 31.6 | 4.37 | > 64.6 | 49 | 32.4 | > 64600 | 8.13
7 | FC1(F)CCc2cc(C3=NCc4c(Cl)cccc4-n4cccc43)ccc21 [Compound 66, 7-chloro-4-(1,1-difluoro-2,3-dihydro-1H-inden-5-yl)-6H-pyrrolo[1,2-a][1,4]benzo-diazepine] | 4.46 | 5.55 | <4.19 | <4.19 | 5.09 | 4.49 | 6.11 | – | – | – | – | – | – | –
8 | FC1(F)CCc2cc(C3=NCc4ccc(Cl)cc4-n4cccc43)ccc21 [Compound 67, 9-chloro-4-(1,1-difluoro-2,3-dihydro-1H-inden-5-yl)-6H-pyrrolo[1,2-a][1,4]benzo-diazepine] | 5.10 | 5.90 | 5.09 | <4.19 | 5.10 | 5.09 | 5.36 | – | – | – | – | – | – | –
9 | FC1(F)CCc2cc(C3=NCc4cccc(Cl)c4-n4cccc43)ccc21 [Compound 68, 10-chloro-4-(1,1-difluoro-2,3-dihydro-1H-inden-5-yl)-6H-pyrrolo[1,2-a][1,4]benzo-diazepine] | <4.19 | <4.19 | <4.19 | <4.19 | 4.19 | <4.19 | <4.19 | – | – | – | – | – | – | –
